The results in this text go back to patent US20060100567A1, “Microsurgical tissue treatment system” (Rocky Mountain Biosystems, Inc, priority 2004, published 2006).

This experiment in a line: Delivery of a topical anesthetic through micro-ablated stratum corneum. It is filed as in vivo. Conditions: solution of 4% lidocaine applied for five minutes to approx. 1 cm^2 area ablated by piezoelectric actuator with 60 micron aluminum oxide particles, 10-15 pulses, 20 kHz. The method, then: A piezoelectric actuator was fitted with 60 micron aluminum oxide particles fixed to its surface so as to provide an approximate 1 cm^2 treatment area. Ten to fifteen pulses of less than one second duration were applied with force of less than 1 pound to the area and frequency of 20 kHz. […] A solution of 4% lidocaine was applied to the area and incubated for five minutes. The excess lidocaine was wiped off, and a series of probes was made in and around the area of treatment using a 20 gauge needle or by pinching.

Regarding `CCN(CC)CC(=O)Nc1c(C)cccc1C` [lidocaine], the “anesthesia (sensation on probing with a 20 gauge needle or pinching)” value is reported as “significant anesthesia was obtained”.
